Experimental data published in US9879049B2, “Glycopeptide antibiotic analogs effective against vancomycin-resistant bacterial strains” (The Scripps Research Institute, priority 2011, dated 2018).
≈ marks a conversion by molar mass, not a printed value. Where two headings read alike, the source gives them in different places.

Legend:
N,N′-Ac2-Lys-D-Ala-D-Ala = assay: Titration binding assay (UV difference) with model D-Ala-D-Ala ligand; details: for ligand, Ka, 6, X = NH: model ligand 6 (D-Ala-D-Ala), 0.02 M sodium citrate buffer pH 5.1; for Ka(6/7): ratio of Ka for ligand 6 (D-Ala-D-Ala) to ligand 7 (D-Ala-D-Lac)
Description: (§1) The binding constants for compounds 6 and 8 for association with the model ligands N,N′-Ac2-Lys-D-Ala-D-Ala (2) and N,N′-Ac2-Lys-D-Ala-D-Lac (4) were determined according to literature protocol.^30 UV difference measurements were carried out on a CARY 3E UV-Vis spectrometer. UV scans were run with a baseline correction that consisted of 0.02 M sodium citrate buffer (pH=5.1) and covered the range from 200 to 345 nm. A solution of 6 or 8 (7.7×10^−5M in 0.02 M sodium citrate buffer) was placed into a quartz UV cuvette (0.1 cm path length) and the UV spectrum recorded versus a reference cell containing 0.02 M sodium citrate buffer. UV spectra were recorded after each addition of a solution of N,N′-Ac2-Lys-D-Ala-D-Ala (2) or N,N′-Ac2-Lys-D-Ala-D-Lac (4) in 0.02 M sodium citrate buffer to each cell from 0.1 to 60.0 equivalents. The absorbance value at the λmax was recorded and the running change in absorbance, ΔAx equiv (Ainitial−Ax equiv), measured. The number of ligand equivalents was plotted versus ΔA to afford the ligand binding titration curve. The break point of this curve is the saturation point of the system and its xy coordinates were determined by establishing the intersection of the linear fits of the pre- and post-saturation curves. ΔAsaturation was calculated and employed to determine the concentration of free ligand in solution at each titration point. ΔA was plotted versus ΔA/free ligand concentration to give a Scatchard plot from which the binding constants were determined.
(§2) Titration Binding Assays with Model D-Ala-D-Ala and D-Ala-D-Lac Ligands 6 and 7.
(§3) The binding constants for all compounds for association with the model ligands N,N′-Ac2-Lys-D-Ala-D-Ala (6) and N,N′-Ac2-Lys-D-Ala-D-Lac (7) were determined according to literature protocol. UV difference experiments were carried out on a CARY 3E UV-Vis spectrometer. UV scans were run with a baseline correction that consisted of 0.02 M sodium citrate buffer (pH=5.1) and covered a range from 200 to 345 nm. A solution of the vancomycin aglycon derivative (7.7×10^−5 M in 0.02 M sodium citrate buffer) was placed into a quartz UV cuvette (0.1 cm path length) and the UV spectrum recorded versus a reference cell containing 0.02 M sodium citrate buffer. UV spectra were recorded after each addition of a solution of N,N′-Ac2-Lys-D-Ala-D-Ala (6) or N,N′-Ac2-Lys-D-Ala-D-Lac (7) in 0.02 M sodium citrate buffer to each cell from 0.1 to 60.0 equivalents. The absorbance value at the λmax was recorded and the running change in absorbance, ΔAx equiv (Ainitial−Ax equiv), measured. The number of ligand equivalents was plotted versus ΔA to afford the ligand binding titration curve. The break point of this curve is the saturation point of the system and its xy coordinates were determined by establishing the intersection of the linear fits of the pre and postsaturation curves. ΔAsaturation was calculated and employed to determine the concentration of free ligand in solution at each titration point. ΔA was plotted versus ΔA/free ligand concentration to give a Scatchard plot from which the binding constants were determined.

N,N′-Ac2-Lys-D-Ala-D-Lac = assay: Titration binding assay (UV difference) with model D-Ala-D-Lac ligand; details: for ligand, Ka, 7, X = O: model ligand 7 (D-Ala-D-Lac), 0.02 M sodium citrate buffer pH 5.1
Description: Titration Binding Assays with Model D-Ala-D-Ala and D-Ala-D-Lac Ligands 2 and 4.
as §1, §2, §3

[1] = test system: E. faecalis (BM4166, VanA VRE); assay: MIC by broth microdilution, VanA VRE; format: cell-based; details: for MIC: Enterococcus faecalis, read-out: VanA MIC (minimum inhibitory conc.)
Description: E. faecalis (BM4166) was propagated and MIC's were determined in duplicate by the broth microdilution method according to standard microbiological practice. See: Clinical and Laboratory Standards Institute. Methods for Dilution Antimicrobial Susceptibility Tests for Bacteria That Grow Aerobically; Approved Standard, 7th ed.; CLSI document M07-A8; Clinical and Laboratory Standards Institute: Wayne, Pa., 2009. Cudic, M.; Condie, B. A.; Weiner, D. J.; Lysenko, E. S.; Xiang, Z. Q.; Insug, O.; Bulet, P.; Otvos, L., Jr.; Peptides 2002, 23, 271.
(§4) S. Aureus (ATCC 25923) and E. Faecalis (BM4166) were propagated and MICs were determined in duplicate by the broth microdilution method according to standard microbiological practice. (Clinical and Laboratory Standards Institute. Methods for Dilution Antimicrobial Susceptibility Tests for Bacteria That Grow Aerobically; Approved Standard, 7th ed.; CLSI document M07-A8; Clinical and Laboratory Standards Institute: Wayne, Pa., 2009.)

[2] = amidine group; cited from earlier work
S. Aureus (ATCC 25923) = assay: MIC by broth microdilution, vancomycin-sensitive S. aureus; format: cell-based; details: Staphylococcus aureus, ATCC25923
Description: as §4

[3] = test system: sensitive bacterial strains; assay: Activity against sensitive bacterial strains; format: cell-based; details: read-out: MIC against sensitive bacterial strains
[4] = test system: Vancomycin-resistant bacteria (VanA and VanB); details: resistant bacteria with D-Ala-D-Lac precursor; cited from earlier work
[5] = test system: D-Ala-D-Lac, substrate model 4 (X═O); details: cited from earlier work
[6] = test system: substrate model 3 (X═CH2); details: substrate model 3 (X═CH2) versus model 2; cited from earlier work

For `CN[C@H](CC(C)C)C(=O)N[C@H]1C(=O)N[C@@H](CC(N)=O)C(=O)N[C@H]2C(=NC#N)NC3C(=O)N[C@H](C(=O)N[C@H](CO)c4cc(O)cc(O)c4-c4cc3ccc4O)[C@H](O)c3ccc(c(Cl)c3)Oc3cc2cc(c3O)Oc2ccc(cc2Cl)[C@H]1O` (single isomer, unassigned) [Compound 14], the “binding of D-Ala-D-Ala versus D-Ala-D-Lac” value (N,N′-Ac2-Lys-D-Ala-D-Ala; D-Ala-D-Ala bound more effectively than D-Ala-D-Lac) was at least 120 fold, the “affinity for D-Ala-D-Ala, fold less than parent amide 8 or amidine 10” value (N,N′-Ac2-Lys-D-Ala-D-Ala; relative to 8 or 10) was 20 fold and the “binding of D-Ala-D-Lac” value (N,N′-Ac2-Lys-D-Ala-D-Lac; result in words) was “failed to bind”. The MIC ([1]; E. faecalis BM4166, VanA VRE) was over 40 µg/mL, the pKa [2] was 1 and the MIC (S. Aureus (ATCC 25923)) was 10 µg/mL (≈ 8.67 µM).
With `CN[C@H](CC(C)C)C(=O)N[C@H]1C(=O)N[C@@H](CC(N)=O)C(=O)N[C@H]2C(=O)N[C@H]3C(=O)N[C@H](C(=O)N[C@H](C(=O)O)c4cc(O)cc(O)c4-c4cc3ccc4O)[C@H](O)c3ccc(c(Cl)c3)Oc3cc2cc(c3O)Oc2ccc(cc2Cl)[C@H]1O` [Compound 2, vancomycin aglycone, reference compound] the MIC [3] was 0.3 to 2 µg/mL (≈ 0.262 to 1.75 µM), the “ligand, Ka, 6, X = NH” value (N,N′-Ac2-Lys-D-Ala-D-Ala) was 170000 M⁻¹ and the “Ka(6/7)” value (N,N′-Ac2-Lys-D-Ala-D-Ala) was 1400. For the same molecule, the “ligand, Ka, 7, X = O” value (N,N′-Ac2-Lys-D-Ala-D-Lac) was 120 M⁻¹ and the MIC ([1]; VRE) was 640 µg/mL (≈ 559 µM).
For `CN[C@H](CC(C)C)C(=O)N[C@H]1C(=O)N[C@@H](CC(N)=O)C(=O)N[C@H]2C(=N)NC3C(=O)N[C@H](C(=O)N[C@H](C(=O)O)c4cc(O)cc(O)c4-c4cc3ccc4O)[C@H](O)c3ccc(c(Cl)c3)Oc3cc2cc(c3O)Oc2ccc(cc2Cl)[C@H]1O` [Compound 4, [Ψ[C(═NH)NH]Tpg^4]Vancomycin Aglycon], the “ligand, Ka, 6, X = NH” value (N,N′-Ac2-Lys-D-Ala-D-Ala) was 73000 M⁻¹, the “Ka(6/7)” value (N,N′-Ac2-Lys-D-Ala-D-Ala) was 1.05 and the “ligand, Ka, 7, X = O” value (N,N′-Ac2-Lys-D-Ala-D-Lac) was 69000 M⁻¹. The MIC ([1]; VRE) was 0.31 µg/mL (≈ 0.271 µM) and the pKa [2] was 12.5.
In the case of `CN[C@H](CC(C)C)C(=O)N[C@H]1C(=O)N[C@@H](CC(N)=O)C(=O)N[C@H]2C(=S)NC3C(=O)N[C@H](C(=O)N[C@H](C(=O)O)c4cc(O)cc(O)c4-c4cc3ccc4O)[C@H](O)c3ccc(c(Cl)c3)Oc3cc2cc(c3O)Oc2ccc(cc2Cl)[C@H]1O` [Compound 5, [Ψ[C(═S)NH]Tpg^4]Vancomycin Aglycon], the “ligand, Ka, 6, X = NH” value (N,N′-Ac2-Lys-D-Ala-D-Ala) is reported as 170 M⁻¹, the “binding to D-Ala-D-Ala” value (N,N′-Ac2-Lys-D-Ala-D-Ala; result in words, FIG. 3) is reported as “completely disrupt binding” and the “ligand, Ka, 7, X = O” value (N,N′-Ac2-Lys-D-Ala-D-Lac) is reported as 11 M⁻¹. For the same molecule, the “binding to D-Ala-D-Lac” value (N,N′-Ac2-Lys-D-Ala-D-Lac; result in words, FIG. 3) was “completely disrupt binding”, the MIC ([1]; VRE) was over 640 µg/mL and the antimicrobial activity ([1]; result in words, FIG. 3) was “lacked any antimicrobial activity”.
For `CN=C1NC2C(=O)N[C@H](C(=O)N[C@H](CO)c3cc(O)cc(O)c3-c3cc2ccc3O)[C@H](O)c2ccc(c(Cl)c2)Oc2cc3cc(c2O)Oc2ccc(cc2Cl)[C@@H](O)[C@@H](NC(=O)[C@@H](CC(C)C)NC)C(=O)N[C@@H](CC(N)=O)C(=O)N[C@@H]13` [Compound 11], the “relative affinity for ligands 6 and 7” value (N,N′-Ac2-Lys-D-Ala-D-Ala; D-Ala-D-Ala versus D-Ala-D-Lac, result in words) was “near equal affinities”, the “times less effective than parent amidine 10 at binding D-Ala-D-Ala ligand 6” value (N,N′-Ac2-Lys-D-Ala-D-Ala; relative to 10) was 30 to 50 times and the “times less effective than parent amidine 10 at binding D-Ala-D-Lac ligand 7” value (N,N′-Ac2-Lys-D-Ala-D-Lac; relative to 10) was 30 to 50 times. The MIC ([1]; E. faecalis BM4166, VanA VRE) was 20 µg/mL (≈ 17.5 µM) and the “fold less potent than 10 against VanA VRE” value ([1]; relative to parent amidine 10) was 60 fold.
For `CN[C@H](CC(C)C)C(=O)N[C@H]1C(=O)N[C@@H](CC(N)=O)C(=O)N[C@H]2C(=O)N[C@H]3C(=O)N[C@H](C(=O)N[C@H](C(=O)O)c4cc(O)cc(O)c4-c4cc3ccc4O)[C@H](O)c3ccc(c(Cl)c3)Oc3cc2cc(c3O[C@@H]2O[C@H](CO)[C@@H](O)[C@H](O)[C@H]2O[C@H]2C[C@](C)(N)[C@H](O)[C@H](C)O2)Oc2ccc(cc2Cl)[C@H]1O` [vancomycin], the “loss in antimicrobial activity” value [4] is listed as 1000 fold, the “loss in Gibbs free energy of binding ΔG°” value ([5]; 25° C., substrate model 4 (X═O) versus model 2) is listed as 3.1 kcal/mol and the “reduction of binding affinity for the altered ligand D-Ala-D-Lac” value ([5]; versus D-Ala-D-Ala) is listed as 1000 fold. The “free energy loss of binding” value [6] was “about 1.5 kcal/mole”.
For “[Ψ-[CH2NH]Tpg^4]vancomycin aglycon [Compound 3, reference compound]”, the “ligand, Ka, 6, X = NH” value (N,N′-Ac2-Lys-D-Ala-D-Ala) was 4800 M⁻¹, the “Ka(6/7)” value (N,N′-Ac2-Lys-D-Ala-D-Ala) was 0.9 and the “ligand, Ka, 7, X = O” value (N,N′-Ac2-Lys-D-Ala-D-Lac) was 5200 M⁻¹. For the same molecule, the “VanA MIC (minimum inhibitory conc.)” value ([1]; E. faecalis BM4166, VanA VRE) was 31 µg/mL.
